Legend:
human NMB receptor (BB1) = molecular target: T1, human NMB receptor (BB1) (Homo sapiens, UniProt P28336); assay: BB1 binding assay ([125I][Tyr4]bombesin, CHO-K1 cell membranes)
T1 construct: expressed in transfected cells
Procedure: (§1) In the following experiments, measurement of BB1 and BB2 binding was as follows. […] The final pellet was resuspended in assay buffer to a final cell concentration of 1.5 × 10^5/mL. […] Nonspecific binding was defined by 1µM bombesin. […] Radioactivity bound was determined using a gamma counter.
(§2) All competition data was analysed using nonlinear regression utilizing iterative curve-plotting procedures in Prism® (GraphPad Software Inc., San Diego, USA).

human GRP receptor (BB2) = molecular target: T2, human GRP receptor (BB2) (Homo sapiens, UniProt P30550); assay: BB2 binding assay ([125I][Tyr4]bombesin, CHO-K1 cell membranes)
T2 construct: expressed in transfected cells
Procedure: as §1, §2

[1] = Table 7, N-terminal sulfonamide derivatives

T1 sequence (P28336 whole entry): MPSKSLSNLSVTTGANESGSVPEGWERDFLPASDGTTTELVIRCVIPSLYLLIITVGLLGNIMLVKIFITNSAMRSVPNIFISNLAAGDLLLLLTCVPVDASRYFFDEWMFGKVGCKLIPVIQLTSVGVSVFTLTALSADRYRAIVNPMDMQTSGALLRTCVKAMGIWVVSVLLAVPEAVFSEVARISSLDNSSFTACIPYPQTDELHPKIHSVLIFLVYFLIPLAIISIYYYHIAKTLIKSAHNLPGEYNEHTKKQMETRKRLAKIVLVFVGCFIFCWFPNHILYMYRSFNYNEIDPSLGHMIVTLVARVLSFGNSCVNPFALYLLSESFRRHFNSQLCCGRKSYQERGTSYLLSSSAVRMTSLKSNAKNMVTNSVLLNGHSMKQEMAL
T2 sequence (P30550 whole entry): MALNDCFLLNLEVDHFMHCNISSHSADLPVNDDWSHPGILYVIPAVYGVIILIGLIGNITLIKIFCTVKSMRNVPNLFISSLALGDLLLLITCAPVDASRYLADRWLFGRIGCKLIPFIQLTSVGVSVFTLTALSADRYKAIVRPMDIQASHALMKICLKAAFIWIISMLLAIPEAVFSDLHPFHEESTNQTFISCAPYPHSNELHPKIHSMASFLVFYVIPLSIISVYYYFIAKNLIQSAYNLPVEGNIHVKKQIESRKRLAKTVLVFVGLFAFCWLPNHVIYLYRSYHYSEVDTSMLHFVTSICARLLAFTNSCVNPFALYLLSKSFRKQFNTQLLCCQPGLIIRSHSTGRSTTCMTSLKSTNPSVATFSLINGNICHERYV

Row | IC50 (human NMB receptor (BB1); Table 3, N-acyl derivatives) | IC50 (human GRP receptor (BB2); Table 3, N-acyl derivatives) | Compound | IC50 (human NMB receptor (BB1); [1]) | IC50 (human GRP receptor (BB2); [1])
1 | 2500 nM |  | C[C@@](Cc1c[nH]c2ccccc12)(NC(=O)c1ccccc1)C(=O)NCC1(c2ccccn2)CCCCC1 [Example 32, N-{(S)-2-(1H-Indol-3-yl)-1-methyl-1-[(1-pyridin-2-yl-cyclohexylmethyl)-carbamoyl]-ethyl}-benzamide] |  | 
2 | 2520 nM | > 10000 nM | CN(C)c1cccc(C(=O)N[C@@](C)(Cc2c[nH]c3ccccc23)C(=O)NCC2(c3ccccn3)CCCCC2)c1 [Example 42, Dimethylamino-N-{(S)-2-(1H-indol-3-yl)-1-methyl-1-[(1-pyridin-2-yl-cyclohexyl-methyl)-carbamoyl]-ethyl}-benzamide] |  | 
3 |  |  | (S)-3-(1H-Indol-3-yl)-2-methyl-2-(nitro-trifluoromethyl-benzenesulfonylamino)-N-(1-pyridin-2-yl-cyclohexylmethyl)-propionamide [Example 167] | 758 nM | > 10000 nM
4 | 2500 nM |  | Cc1ccc(C(=O)N[C@@](C)(Cc2c[nH]c3ccccc23)C(=O)NCC2(c3ccccn3)CCCCC2)cc1 [Example 33, N-{(S)-2-(1H-Indol-3-yl)-1-methyl-1-[(1-pyridin-2-yl-cyclohexylmethyl)-carbamoyl]-ethyl}-4-methyl-benzamide] |  | 
